Test results published in patent publication US20070190628A1, “Yeast food composition for fuel ethanol production” (priority 2006, published 2007).

What was measured:
Format in all cases: cell-based, Saccharomyces cerevisiae
active dry yeast “z” [1] = assay: Fermentation of normal gravity corn mash with nutrient supplements (Example 4)
Method: (§1) The effects of the optimized defined urea plus salts-based nutrient supplement, i.e., defined yeast food, developed in Example 3 for corn mash fermentations, were assessed by comparisons of fermentation rates and ethanol production in normal gravity corn mashes and very high gravity corn mashes that were (a) supplemented with 16 mM urea only, or (b) yeast extract, or (c) supplemented with 16 mM urea plus the defined yeast food from Example 3 which in this set of studies, contained 1.6 g/L (NH4)2HPO4, 0.32 g/L (NH4)2SO4, 0.049 g/L MgSO4.7H2O, and 0.273 mg/L ZnSO4.7H2O.
(§2) Normal density corn mashes were prepared as described in Example 1 and were determined to contain about 18-20 g dissolved solids per 100 mL mash as determined by density meter analysis. […] The mash thus prepared contained 30-32 g of dissolved solids/100 mL as determined by density meter analysis. […]
(§3) Each study was commenced by removing fermentors containing either normal gravity corn mash or very high gravity corn mash from 4° C. storage, connecting them to 30° C. water bath circulators and continually mixing the corn mash contents therein until the temperature of each mash was 30° C. […] Fermentation performance in all treatments was assessed by repeated sampling and analyses of the mashes during the fermentation periods as described in Example 1.

active dry yeast “z” [2] = assay: Fermentation of very high gravity corn mash with nutrient supplements (Example 4)
Method: as §1, §2, §3

active dry yeast “z” [3] = assay: Scaled batch fermentation (4 L) of normal gravity corn mash: fermentation time and ethanol production; conditions: 4 L batch
Method: The fermentation rate in each nutrient-amended corn mash was determined by following the disappearance of dissolved solids by analysis of each sample collected for determination of yeast biomass production, with a digital density meter analyzer (model DMA-45, Anton Paar KG, Graz, Austria) maintained at 20° C. The amounts of ethanol produced during fermentation of each nutrient-amended corn mash were determined by measuring the amount of NADH+H^+ produced after ethanol was converted to acetaldehyde by alcohol dehydrogenase (ADH; Sigma Chemical Co.). An aliquot of each sample was collected for determination of yeast biomass production and diluted to 1:500. […] The absorbance of each tube was then measured at 340 nm after 15 min of incubation using water as the blank. To determine the amount of ethanol produced, a standard curve (ethanol concentration versus absorbance) was prepared using a standard 10% (w/v) ethanol preparation diluted to 1:500 and then diluted further to produce range of ethanol concentrations from 0 to 20 μg in the assay above. The linear equation (y=mx+b) obtained from the plot was used to calculate the amount of ethanol in the test solutions, where y was the absorbance and x was the amount (μg) of ethanol. […] Fermentation rates and ethanol production were determined by repeated sampling and sample processing at specific time intervals as described in Example 1.

For NC(N)=O [urea], the “fermentation period required to complete fermentation (disappearance of dissolved solids)” value (active dry yeast “z” [1]) was 48 h, the “time after which fermentation became “stuck”” value (active dry yeast “z” [2]) was 72 h and the maximum ethanol production (active dry yeast “z” [3]) was 11 % v/v. For the same compound, the “time within which fermentation was completed” value (active dry yeast “z” [3]) was no more than 48 h.
